Source: US20190151308A1 (Otsuka Pharmaceutical Co., Ltd., priority 2002, published 2019)

Key:
[1] = Tail suspension test (TST); type: in vivo, mice; details: 3 mg/kg p.o. of each drug; for Immobility time (sec, mean ± SE): 60 min before suspension, 5-15 min period, N = 7-9; for % of shortening for immobility time: versus vehicle
Excerpt: The tail suspension test (TST) was originally described by Steru et al. […] The antidepressant activity of a test drug can be detected as an index of shortening the immobility time. This test is widely used as to an experimental animal model for predicting the antidepressant activity of a test drug in clinical settings. An automated device for performing the TST was developed by the authors of the TST (1989).^2) We improved this device and developed our own device incorporating an electric balance, an A/D converter, a testing box (30×25×25 cm), and a personal computer. The mouse was suspended from a hook hanging from the ceiling in the testing box by adhesive tape applied 20 mm from the tip of the tail. The duration of immobility was measured by the computer for a period of 15 min following the start of suspension. […] The experiments were carried out in a sound-proof room.

[2] = Augmentation therapy in major depressive disorder patients non-responsive or partially responsive to serotonin reuptake inhibitors; type: in vivo; details: 10 to 30 mg/day for 4 to 8 weeks, added to serotonin reuptake inhibitor therapy
Protocol: Only patients with such Hamilton scores receive treatment. These patients are interviewed to obtain a complete medical and psychiatric history.
Only patients with such Hamilton scores receive treatment. These patients are interviewed to obtain a complete medical and psychiatric history. Dehydroaripiprazole is first administered at a dose of 10 mg/day and increased to 30 mg/day as needed in the opinion of the monitoring psychiatrist. Dehydroaripiprazole is administered to these patients at a dose of from 10 mg/day to 30 mg/day for a period of at least four weeks, and up to eight weeks for patients who respond well to this treatment during the first four weeks.

| SMILES | Immobility time (sec, mean ± SE) [1] [s] | % of shortening for immobility time [1] [%] | symptoms of depression (Hamilton test, CGI, AIMS, SAS, Barnes) [2] |
| --- | --- | --- | --- |
| CN(C)CCCC1(c2ccc(F)cc2)OCc2cc(C#N)ccc21 (centres unmarked) [Citalopram, citalopram] | 468.7 ± 24.2 | 6 |  |
| O=C1CCc2ccc(OCCCCN3CCN(c4cccc(Cl)c4Cl)CC3)cc2N1 [Aripiprazole, 7-{4-[4-(2,3-Dichlorophenyl)-1-piperazinyl]-butoxy}-3,4-dihydrocarbostyril] | 486.4 ± 12.3 | 3 | improvement in alleviation of symptoms of depression |
